The target of one assay is human SPR (Homo sapiens (Human), UniProt P35270). The assay is described as follows: Evaluation Example 2: Measurement of human SPR inhibitory activity (seven concentrations, sepiapterin absorbance at 420 nm). The settings on record: Evaluation Example 2, seven concentrations 0.14 nM to 100 nM, 240 minutes at room temperature, read-out: IC50. The class given is biochemical. Summed up:
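Reactions ran 240 min at room temperature in 100 mM Tris-HCl pH 7.5 with 0.01% BSA. They contained tag-cleaved, E. coli-expressed full-length human SPR (diluted to 150 ng/mL), seven compound concentrations from 0.14 to 100 nM, and sepiapterin/NADPH added as a 120 μM/160 μM solution. Inhibition was calculated from sepiapterin absorbance at 420 nm.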
Sequence of human SPR (P35270 whole entry): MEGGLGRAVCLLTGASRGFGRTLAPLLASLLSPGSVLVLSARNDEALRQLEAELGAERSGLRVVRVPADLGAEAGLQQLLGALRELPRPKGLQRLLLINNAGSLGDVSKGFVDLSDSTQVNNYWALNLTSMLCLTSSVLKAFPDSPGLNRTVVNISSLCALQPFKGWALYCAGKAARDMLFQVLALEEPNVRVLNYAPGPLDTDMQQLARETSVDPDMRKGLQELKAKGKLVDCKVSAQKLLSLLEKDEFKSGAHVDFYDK
For the compound `CC(C)(C)Cn1c(=O)c(C(=O)NC2CC2)c(O)n2nc3nccnc3c12` [Synthesis Example 392, N-Cyclopropyl-7-hydroxy-10-neopentyl-9-oxo-9,10-dihydropyrazino[2′,3′:3,4]pyrazolo[1,5-a]pyrimidine-8-carboxamide], the IC50 came out at 1.5 nM.

On to `CC(C)(C)Cn1c(=O)c(C(=O)NC2CC2)c(O)n2nc(-c3cn[nH]c3)cc12` [Synthesis Example 286, N-Cyclopropyl-7-hydroxy-4-neopentyl-5-oxo-2-(1H-pyrazol-4-yl)-4,5-dihydropyrazolo[1,5-a]pyrimidine-6-carboxamide], for which the IC50 was 1.54 nM. Consider `CC(C)(C)Cn1c(=O)c(C(=O)NC2CC2)c(O)n2nc(Nc3cnc(C(F)F)cn3)cc12` [Synthesis Example 337, N-Cyclopropyl-2-((5-(difluoromethyl)pyrazin-2-yl)amino)-7-hydroxy-4-neopentyl-5-oxo-4,5-dihydropyrazolo[1,5-a]pyrimidine-6-carboxamide], for which the IC50 came to 1.48 nM. On the same count and under the same terms, then `CNc1ccncc1-c1cc2n(CC(C)(C)C)c(=O)c(C(=O)NC3CC3)c(O)n2n1` [Synthesis Example 308, N-Cyclopropyl-7-hydroxy-2-(4-(methylamino)pyridin-3-yl)-4-neopentyl-5-oxo-4,5-dihydropyrazolo[1,5-a]pyrimidine-6-carboxamide], with 3.6 nM; and `COC[C@H]1COCCN1C(=O)/C=C/c1cnn2c(O)c(C(=O)NC3CC3)c(=O)n(CC3(C)CC3)c12` [Synthesis Example 371, (S,E)-N-Cyclopropyl-7-hydroxy-3-(3-(3-(methoxymethyl)morpholino)-3-oxoprop-1-en-1-yl)-4-((1-methylcyclopropyl)methyl)-5-oxo-4,5-dihydropyrazolo[1,5-a]pyrimidine-6-carboxamide], with 0.61 nM. The same measure, in the same setting: then `CC(C)(C)Cn1c(=O)c(C(=O)NC2CC2)c(O)n2nc(-c3cncnc3)cc12` [Synthesis Example 288, N-Cyclopropyl-7-hydroxy-4-neopentyl-5-oxo-2-(pyrimidin-5-yl)-4,5-dihydropyrazolo[1,5-a]pyrimidine-6-carboxamide], with 1.37 nM; and `CC(C)Cn1c(=O)c(C(=O)NC2CC2)c(O)n2ncc(/C=C/C(=O)N3CCC[C@@H]3C#N)c12` [compound 496, (R,E)-3-(3-(2-Cyanopyrrolidin-1-yl)-3-oxoprop-1-en-1-yl)-N-cyclopropyl-7-hydroxy-4-isobutyl-5-oxo-4,5-dihydropyrazolo[1,5-a]pyrimidine-6-carboxamide], with 0.75 nM. Still for that read-out and setting: the result for `CC(C)Cn1c(=O)c(C(=O)NC2CC2)c(O)n2ncc(/C=C/C(=O)N3CCc4cccnc43)c12` [compound 594, (E)-N-Cyclopropyl-3-(3-(2,3-dihydro-1H-pyrrolo[2,3-b]pyridin-1-yl)-3-oxoprop-1-en-1-yl)-7-hydroxy-4-isobutyl-5-oxo-4,5-dihydropyrazolo[1,5-a]pyrimidine-6-carboxamide] reads 2.01 nM.

For `CC(C)(C)Cn1c(=O)c(C(=O)NC2CC2)c(O)n2nc(N)c(/C=C/C(=O)N3CCOCC3)c12` [Synthesis Example 411, (E)-2-Amino-N-cyclopropyl-7-hydroxy-3-(3-morpholino-3-oxoprop-1-en-1-yl)-4-neopentyl-5-oxo-4,5-dihydropyrazolo[1,5-a]pyrimidine-6-carboxamide], the IC50 turned out to be 0.65 nM.

For `Cc1nn2c(O)c(C(=O)NC3CC3)c(=O)n(CC(C)C)c2c1/C=C/C(=O)N1CC2CCC(C1)O2` [compound 569, (E)-3-(3-(8-Oxa-3-azabicyclo[3.2.1]octan-3-yl)-3-oxoprop-1-en-1-yl)-N-cyclopropyl-7-hydroxy-4-isobutyl-2-methyl-5-oxo-4,5-dihydropyrazolo[1,5-a]pyrimidine-6-carboxamide], the IC50 is 0.67 nM. Same read-out and setting: the result for `Cc1nn2c(O)c(C(=O)NC3CC3)c(=O)n(CC(C)C)c2c1/C=C/C(=O)N1[C@H](C)CC[C@@H]1C` [Synthesis Example 618, N-Cyclopropyl-3-((E)-3-(cis-2,5-dimethylpyrrolidin-1-yl)-3-oxoprop-1-en-1-yl)-7-hydroxy-4-isobutyl-2-methyl-5-oxo-4,5-dihydropyrazolo[1,5-a]pyrimidine-6-carboxamide] reads 1.8 nM; that for `Cc1nn2c(O)c(C(=O)NC3CC3)c(=O)n(CC(C)C)c2c1/C=C/C(=O)N1[C@H](C)COC[C@@H]1C` [Synthesis Example 641, N-Cyclopropyl-3-((E)-3-(cis-3,5-dimethylmorpholino)-3-oxoprop-1-en-1-yl)-7-hydroxy-4-isobutyl-2-methyl-5-oxo-4,5-dihydropyrazolo[1,5-a]pyrimidine-6-carboxamide], 0.89 nM; that for `C=Cc1c(N)nn2c(O)c(C(=O)NC3CC3)c(=O)n(CC(C)C)c12` [Synthesis Example 435, 2-Amino-N-cyclopropyl-7-hydroxy-4-isobutyl-5-oxo-3-vinyl-4,5-dihydropyrazolo[1,5-a]pyrimidine-6-carboxamide], 1.46 nM. On to `CC(C)(C)Cn1c(=O)c(C(=O)NC2CC2)c(O)n2nc3[nH]ccc3c12` [Synthesis Example 395, N-Cyclopropyl-7-hydroxy-4-neopentyl-5-oxo-4,5-dihydro-1H-pyrrolo[2′,3′:3,4]pyrazolo[1,5-a]pyrimidine-6-carboxamide], for which the IC50 was determined as 0.89 nM. Same read-out and setting: then `CC(C)(C)Cn1c(=O)c(C(=O)NC2CC2)c(O)n2nc(-c3cnc(F)cn3)cc12` [Synthesis Example 304, N-Cyclopropyl-2-(5-fluoropyrazin-2-yl)-7-hydroxy-4-neopentyl-5-oxo-4,5-dihydropyrazolo[1,5-a]pyrimidine-6-carboxamide], with 3 nM. Same read-out and setting: then `CN1Cc2c(nn3c(O)c(C(=O)NC4CC4)c(=O)n(CC(C)(C)C)c23)NC1=O` [Synthesis Example 406, N-Cyclopropyl-8-hydroxy-3-methyl-5-neopentyl-2,6-dioxo-1,2,3,4,5,6-hexahydropyrazolo[1,5-a:3,4-d′]dipyrimidine-7-carboxamide], with 0.93 nM; and `Cc1nn2c(O)c(C(=O)NC3CC3)c(=O)n(CC(C)(C)C)c2c1/C=C/C(=O)N1CCOC[C@@H]1C` [Synthesis Example 625, (S,E)-N-Cyclopropyl-7-hydroxy-2-methyl-3-(3-(3-methylmorpholino)-3-oxoprop-1-en-1-yl)-4-neopentyl-5-oxo-4,5-dihydropyrazolo[1,5-a]pyrimidine-6-carboxamide], with 1.05 nM; and `CC(C)(C)Cn1c(=O)c(C(=O)NC2CC2)c(O)n2nc(Nc3cnc(C(=O)NCC(F)F)cn3)cc12` [Synthesis Example 353, N-Cyclopropyl-2-((5-((2,2-difluoroethyl)carbamoyl)pyrazin-2-yl)amino)-7-hydroxy-4-neopentyl-5-oxo-4,5-dihydropyrazolo[1,5-a]pyrimidine-6-carboxamide], with 0.82 nM. Still for that read-out and setting: the result for `C[C@@H](Nc1cc2n(CC(C)(C)C)c(=O)c(C(=O)NC3CC3)c(O)n2n1)c1ccccn1` [Synthesis Example 327, (R)-N-Cyclopropyl-7-hydroxy-4-neopentyl-5-oxo-2-((1-(pyridin-2-yl)ethyl)amino)-4,5-dihydropyrazolo[1,5-a]pyrimidine-6-carboxamide] reads 2.39 nM; that for `Cc1nn2c(O)c(C(=O)NC3CC3)c(=O)n(CC(C)C)c2c1/C=C/C(=O)N1CCCC12CCOCC2` [Synthesis Example 631, (E)-N-Cyclopropyl-7-hydroxy-4-isobutyl-2-methyl-5-oxo-3-(3-oxo-3-(8-oxa-1-azaspiro[4.5]decan-1-yl)prop-1-en-1-yl)-4,5-dihydropyrazolo[1,5-a]pyrimidine-6-carboxamide], 0.66 nM. On to `CC(C)Cn1c(=O)c(C(=O)NC2CC2)c(O)n2ncc(/C=C/C(=O)N3CC[C@H](C(N)=O)C3)c12` [compound 512, (S,E)-3-(3-(3-Carbamoylpyrrolidin-1-yl)-3-oxoprop-1-en-1-yl)-N-cyclopropyl-7-hydroxy-4-isobutyl-5-oxo-4,5-dihydropyrazolo[1,5-a]pyrimidine-6-carboxamide], for which the IC50 worked out at 0.69 nM.

The assay is the same for the next values; noted with them: sepiapterin absorbance, Table 41, read-out: concentration at 50% inhibition of human SPR (IC50).
In the case of `CC(C)Cn1c(=O)c(C(=O)NC2CC2)c(O)n2ncc(/C=C/C(=O)N3CCC[C@@H]3c3cccnc3)c12` [Synthesis Example 748, (R,E)-N-Cyclopropyl-7-hydroxy-4-isobutyl-5-oxo-3-(3-oxo-3-(2-(pyridin-3-yl)pyrrolidin-1-yl)prop-1-en-1-yl)-4,5-dihydropyrazolo[1,5-a]pyrimidine-6-carboxamide], the IC50 stood at 1.01 nM. On the same count and under the same terms, the result for `CC(C)Cn1c(=O)c(C(=O)NC2CC2)c(O)n2ncc(/C=C/C(=O)N3CCc4cc(C#N)ccc43)c12` [Synthesis Example 732, (E)-3-(3-(5-Cyanoindolin-1-yl)-3-oxoprop-1-en-1-yl)-N-cyclopropyl-7-hydroxy-4-isobutyl-5-oxo-4,5-dihydropyrazolo[1,5-a]pyrimidine-6-carboxamide] reads 1.7 nM. Same read-out and setting: the result for `CC(C)Cn1c(=O)c(C(=O)NC2CC2)c(O)n2ncc(/C=C/C(=O)N3CCN(CC4CC(F)(F)C4)C[C@@H]3C)c12` [Synthesis Example 744, (S,E)-N-Cyclopropyl-3-(3-(4-((3,3-difluorocyclobutyl)methyl)-2-methylpiperazin-1-yl)-3-oxoprop-1-en-1-yl)-7-hydroxy-4-isobutyl-5-oxo-4,5-dihydropyrazolo[1,5-a]pyrimidine-6-carboxamide] reads 1.57 nM; that for `Cc1nn2c(O)c(C(=O)NC3CC3)c(=O)n(CC(C)C)c2c1/C=C/C(=O)N(C)CCC#N` [Synthesis Example 687, (E)-3-(3-((2-Cyanoethyl)(methyl)amino)-3-oxoprop-1-en-1-yl)-N-cyclopropyl-7-hydroxy-4-isobutyl-2-methyl-5-oxo-4,5-dihydropyrazolo[1,5-a]pyrimidine-6-carboxamide], 0.77 nM.

The values above are taken from patent publication US20240092784A1, “CONDENSED HETEROCYCLIC COMPOUND” (NISSAN CHEMICAL CORPORATION, priority 2020, published 2024).
